Data taken from patent US10189843B2, “Fused pyrazole derivative having autotaxin inhibitory activity” (The University of Tokyo, priority 2014, dated 2019).

What follows are molecules tested against T1, Human autotaxin enzyme (Homo sapiens, UniProt Q13822) (assay: Evaluation of autotaxin inhibitor, Method C (18:0 Lyso PC substrate, choline assay, Resorufin fluorescence)). Details: Method C (Test Example 3), read-out: Inhibitory activity (enzyme inhibitory activity, IC50).
T1 construct: purchased R&D System
Type: biochemical
Description: Test Example 3 (Method C) Evaluation of Autotaxin Inhibitor
Solution B containing 100 mM Tris-HCl buffer (pH7.5), 150 mM NaCl, 5 mM MgCl2, and 0.05% Triton X-100 was prepared. Human autotaxin enzyme (purchased from R&D System) was diluted with Solution B, and 2.5 μl of which was added to a solution of test compound in DMSO. Furthermore, 2.5 μl of 200 μM 18:0 Lyso PC (purchased from Avanti Polar Lipids) in Solution B was added and allowed to react at room temperature for 2 hours. After completion of the reaction, 15 μl of the coline assay reagent (100 mM Tris-HCl buffer (pH7.5), 5 mM MgCl2, 77 μg/ml coline oxidase, 10 μg/ml peroxydase, 25 μM 10-acetyl-3,7-dihydroxyphenoxazine, and excess autotaxin inhibitor) was added and allowed to react at room temperature for 20 minutes. The fluorescent dye Resorufin, which was produced by the reaction, was detected. The fluorescence was detected using ViewLux (PerkinElmer, Inc.) with a excitation wavelength of 531 nm and a fluorescence wavelength of 598 nm.
The percent inhibition of the test compound was calculated by assuming the sample with no test compound as 0% inhibition and the sample with no enzyme as 100% inhibition, and the percent inhibitions at different concentrations of the test compound were plotted to obtain a concentration-dependent curve.

Compound | IC50 [µM]
CCCCCC1CN(CC(=O)N2CCCCC2CC(=O)O)C(=O)c2cc(-c3ccc(Cl)cc3)nn21 (stereo not drawn) [Compound I-0068] | < 0.01
CCCCCC1CN(CC(=O)N[C@H](C(=O)O)c2ccccc2)C(=O)c2cc(-c3ccc(Cl)cc3)nn21 (stereo partly drawn) [Compound I-0069] | < 0.01
CCCCCC1CN(CC(=O)N2CCC[C@H](C(=O)O)C2)C(=O)c2cc(-c3ccc(Cl)cc3)nn21 (stereo partly drawn) [Compound I-0070] | 0.01 to 0.1
CCCCCC1CN(CC(=O)N2CCC[C@@H](C)C2)C(=O)c2cc(-c3ccc(Cl)cc3)nn21 (stereo partly drawn) [Compound I-0071] | 0.1 to 1
CCCCCC1CN(CC(=O)N2CCCC2Cc2ccccc2)C(=O)c2cc(-c3ccc(Cl)cc3)nn21 (stereo not drawn) [Compound I-0072] | ≥ 1
CCCCCC1CN(CC(=O)Nc2ccccn2)C(=O)c2cc(-c3ccc(Cl)cc3)nn21 (stereo not drawn) [Compound I-0073] | ≥ 1
CCCCCC1CN(CC(=O)N2CCC(C)C2)C(=O)c2cc(-c3ccc(Cl)cc3)nn21 (stereo not drawn) [Compound I-0074] | 0.1 to 1
CCCCCC1CN(CC(=O)N2CCC[C@@H]2C)C(=O)c2cc(-c3ccc(Cl)cc3)nn21 (stereo partly drawn) [Compound I-0075] | 0.01 to 0.1
CCCCCC1CN(CC(=O)N2CCCC[C@H]2C)C(=O)c2cc(-c3ccc(Cl)cc3)nn21 (stereo partly drawn) [Compound I-0076] | 0.1 to 1
CCCCCC1CN(CC(=O)N(C)CC)C(=O)c2cc(-c3ccc(Cl)cc3)nn21 (stereo not drawn) [Compound I-0077] | 0.1 to 1
CCCCCC1CN(CC(=O)N2CCCC2CCCc2ccccc2)C(=O)c2cc(-c3ccc(Cl)cc3)nn21 (stereo not drawn) [Compound I-0078] | ≥ 1
CCCCCC1CN(CC(=O)N2CCCC2CCCC)C(=O)c2cc(-c3ccc(Cl)cc3)nn21 (stereo not drawn) [Compound I-0079] | 0.1 to 1
CCCCCC1CN(CC(=O)N2CCC[C@H](C)C2)C(=O)c2cc(-c3ccc(Cl)cc3)nn21 (stereo partly drawn) [Compound I-0080] | 0.01 to 0.1
CCCCCC1CN(CC(=O)N2CCCC2C)C(=O)c2cc(-c3ccc(Cl)cc3)nn21 (stereo not drawn) [Compound I-0081] | 0.1 to 1
CCCCCC1CN(CC(=O)N2CCCC[C@@H]2C)C(=O)c2cc(-c3ccc(Cl)cc3)nn21 (stereo partly drawn) [Compound I-0082] | 0.01 to 0.1
CCCCCC1CN(CC(=O)N2CCCCC2)C(=O)c2cc(-c3ccc(Cl)cc3)nn21 (stereo not drawn) [Compound I-0083] | 0.1 to 1
CCCCCC1CN(CC(=O)Nc2ccncc2)C(=O)c2cc(-c3ccc(Cl)cc3)nn21 (stereo not drawn) [Compound I-0084] | ≥ 1
CCCCCC1CN(CC(=O)N(C)c2ccncc2)C(=O)c2cc(-c3ccc(Cl)cc3)nn21 (stereo not drawn) [Compound I-0085] | ≥ 1
CCCCCC1CN(CC(=O)Nc2cccnc2)C(=O)c2cc(-c3ccc(Cl)cc3)nn21 (stereo not drawn) [Compound I-0086] | 0.1 to 1
CCCCCC1CN(CC(=O)Nc2ccccc2)C(=O)c2cc(-c3ccc(Cl)cc3)nn21 (stereo not drawn) [Compound I-0087] | ≥ 1

Results, then the molecule that gave them:

IC50 [µM] | Compound
0.1 to 1 | CCCCCC1CN(CC(=O)NCCCC)C(=O)c2cc(-c3ccc(Cl)cc3)nn21 (stereo not drawn) [Compound I-0088]
0.01 to 0.1 | CCCCCC1CN(CC(=O)N2CCCC(CO)C2)C(=O)c2cc(-c3ccc(Cl)cc3)nn21 (stereo not drawn) [Compound I-0089]
0.01 to 0.1 | CCCCCC1CN(CC(=O)N2CCCCC2CO)C(=O)c2cc(-c3ccc(Cl)cc3)nn21 (stereo not drawn) [Compound I-0090]
0.1 to 1 | CCCCCC1CN(CC(=O)N2CCCCC2CC)C(=O)c2cc(-c3ccc(Cl)cc3)nn21 (stereo not drawn) [Compound I-0091]
0.1 to 1 | CCCCCC1CN(CC(=O)N2CCCC(O)C2)C(=O)c2cc(-c3ccc(Cl)cc3)nn21 (stereo not drawn) [Compound I-0092]
0.1 to 1 | CCCCCC1CN(CC(=O)N2CCC(C)CC2)C(=O)c2cc(-c3ccc(Cl)cc3)nn21 (stereo not drawn) [Compound I-0093]
0.01 to 0.1 | CCCCCC1CN(CC(=O)N2CCC(O)CC2)C(=O)c2cc(-c3ccc(Cl)cc3)nn21 (stereo not drawn) [Compound I-0094]
0.01 to 0.1 | CCCCCC1CN(CC(=O)N2CCCC(C(N)=O)C2)C(=O)c2cc(-c3ccc(Cl)cc3)nn21 (stereo not drawn) [Compound I-0095]
0.1 to 1 | CCCCCC1CN(CC(=O)N2CCC(CO)CC2)C(=O)c2cc(-c3ccc(Cl)cc3)nn21 (stereo not drawn) [Compound I-0096]
0.1 to 1 | CCCCCC1CN(CC(=O)N2CCCC2)C(=O)c2cc(-c3ccc(Cl)cc3)nn21 (stereo not drawn) [Compound I-0097]
